Source: patent US20190375778A1, “ADENOSINE DERIVATIVES FOR USE IN THE TREATMENT OF CANCER” (NuCana plc, priority 2016, published 2019)

Tests used:
[1] = system: Lovo; test: MTT cytotoxicity assay, Lovo; format: cell-based; settings: Homo sapiens, 96 h compound exposure, read-out: absolute IC50, Lovo
Excerpt: (§1) Lovo: cell line derived from a metastatic site in a patient with colon cancer MCF7: human oestrogen sensitive mammary epithelial cell line PC3: human prostate cancer cell line A549: cancerous lung tissue derived cells L1210: lymphoblast cell line derived from a mouse with lymphocytic leukaemia FM3A: mammary carcinoma murine cells CEM: human T-lymphoblasts, derived from the blood of a patient with acute lymphoblastic leukaemia HeLa: epithelial cells from a patient with cervical adenocarcinoma
(§2) Anti-tumour evaluation in MCF7, LoVo, A549 and PC3 cell lines was performed by MTT assay. Compounds were prepared as 0.1-100 mM stock solutions dissolved in DMSO and stored at −20° C. Cells were seeded into 96-well microtitre plates at a density of 5×10^3 cells per well and allowed 24 hours to adhere. Decimal compound dilutions were prepared in medium immediately prior to each assay (final concentration 0.1-100 μM). Experimental medium was DMEM+10% FCS (PC3 and Lovo) or RPMI+10% heat inactivated FCS (A549 and MCF7). Following 96 h compound exposure at 37° C., 5% CO2, MTT reagent (Sigma Aldrich) was added to each well (final concentration 0.5 mg/ml). Incubation at 37° C. for 4 h allowed reduction of MTT by viable cells to an insoluble formazan product. MTT was removed and formazan solubilised by addition of 10% Triton X-100 in PBS. Absorbance was read on a Tecan Sunrise spectrophotometer at 540 nm as a measure of cell viability; thus inhibition relative to control was determined (IC50).

[2] = system: MCF7; test: MTT cytotoxicity assay, MCF7; format: cell-based; settings: Homo sapiens, 96 h compound exposure, read-out: absolute IC50, MCF7
Excerpt: as §1, §2

[3] = system: PC3; test: MTT cytotoxicity assay, PC3; format: cell-based; settings: Homo sapiens, PC-3, 96 h compound exposure, read-out: absolute IC50, PC3
Excerpt: as §1, §2

[4] = system: A549; test: MTT cytotoxicity assay, A549; format: cell-based; settings: Homo sapiens, 96 h compound exposure, read-out: absolute IC50, A549
Excerpt: as §1, §2

[5] = system: KG1a cell line; test: Annexin V/propidium iodide cytotoxicity, KG1a unsorted; format: cell-based; settings: for LD50: Homo sapiens, KG-1a, Annexin V/propidium iodide, 72 hrs
Procedure: (§3) A further comparative analysis of the toxicity of compounds in the KG1a cell line over an extended dose range was carried out, and the relative effect assessed of the compounds on the leukaemic stem cell compartment within the KG1a cell line, across the entire dose range. Thus, experimental tests were performed on certain compounds of the present invention to assess their ability to target cancer stem cells in a leukaemic cell line. The acute myeloid leukaemia (AML) cell line, KG1a, was employed to assess the relative effect of compounds on the stem cell compartment. The KG1a cell line was selected because it manifests a minor stem cell-like compartment with a distinct immunophenotype (Lin^−/CD34^+/CD38^−/CD123^+).
(§4) Cells of the KG1a cell line were maintained in RPMI medium (Invitrogen, Paisley, UK) supplemented with 100 units/ml penicillin, 100 μg/ml streptomycin and 20% foetal calf serum. Cells were subsequently aliquoted (10^5 cells/100 μl) into 96-well plates and were incubated at 37° C. in a humidified 5% carbon dioxide atmosphere for 72 hrs in the presence of nucleoside analogues and their respective nucleotide analogues (known as ProTides) at concentrations that were experimentally determined for each series of compounds. In addition, control cultures were carried out to which no drug was added. Cells were subsequently harvested by centrifugation and were analyzed by flow cytometry using the Annexin V assay.
Cultured cells were harvested by centrifugation and then resuspended in 195 μl of calcium-rich buffer. Subsequently, 5 μl of Annexin V (Caltag Medsystems, Botolph Claydon, UK) was added to the cell suspension and cells were incubated in the dark for 10 mins prior to washing. Cells were finally resuspended in 190 μl of calcium-rich buffer together with 10 μl of propidium iodide. Apoptosis was assessed by dual-colour immunofluorescent flow cytometry as described previously. Subsequently LD50 values (the dose required to kill 50% of the cells in a culture) were calculated for each nucleoside analogue and ProTide.
(§5) The data obtained in these experiments were evaluated using one way ANOVA. All data was confirmed as Gaussian or a Gaussian approximation using the omnibus K2 test. LD50 values were calculated from the non-linear regression and line of best-fit analysis of the sigmoidal dose-response curves. All statistical analyses were performed using Graphpad Prism 6.0 software (Graphpad Software Inc., San Diego, Calif.).

[6] = system: KG1a leukaemic stem cell compartment (Lin−/CD34+/CD38−/CD123+); test: Leukaemic stem cell compartment in KG1a; format: cell-based; settings: for Change relative to control (%): % LSC compartment versus the series' control; for KG-1a (CD34+/CD38−/CD123+) % compartment: LSC as percentage of viable cells left, 72 hrs
Procedure: as §3, §4
KG1a cells were cultured for 72 hrs in the presence of a wide range of concentrations of each compound assayed. Cells were then harvested and labelled with a cocktail of anti-lineage antibodies (PE-cy7), anti-CD34 (FITC), anti-CD38 (PE) and anti-CD123 (PERCP cy5). The sub-population expressing a leukaemic stem cell (LSC) phenotype were subsequently identified and were expressed as a percentage of all viable cells left in the culture. The percentages of stem cells remaining were then plotted on a dose-response graph and the effects of the compounds were compared with 8-chloroadenosine.
as §5

[7] = system: Murine leukemia L1210; test: Cell proliferation (Coulter count) assay, L1210; format: cell-based; settings: Mus musculus, 48 h, read-out: absolute IC50, L1210
Excerpt: as §1
(§6) Murine leukemia L1210, human T-lymphocyte CEM, and human cervix carcinoma HeLa cells were obtained from the American Type Culture Collection (ATCC) (Rockville, Md.). All cells were maintained in Dulbecco's modified Eagle's medium (DMEM) (Invitrogen, Carlsbad, Calif.) with 10% fetal bovine serum (FBS) (Biochrom AG, Berlin, Germany), 10 mM Hepes, and 1 mM sodiumpyruvate (Invitrogen). Cells were grown at 37° C. in a humidified incubator with a gas phase of 5% CO2. Monolayer cells (HeLa and […]) were seeded in 96-well microtiter plates (Nunc, Roskilde, Denmark) at 10 000 cells/well. After 24 h, an equal volume of fresh medium containing the test compounds was added. On day 5, cells were trypsinized and counted in a Coulter counter (Analis, Suarlee, Belgium). Suspension cells (L1210, CEM) were seeded in 96-well microtiter plates (Nunc) at 60 000 cells/well in the presence of a given amount of the test compounds. The cells were allowed to proliferate for 48 h (L1210) or 72 h (CEM) and were then counted in a Coulter counter. The 50% inhibitory concentration (IC50) was defined as the compound concentration required to reduce cell proliferation by 50%. The cytostatic activity of the compounds was determined after 3 days, as outlined above.

[8] = system: human T-lymphocyte CEM; test: Cell proliferation (Coulter count) assay, CEM; format: cell-based; settings: 72 h, read-out: absolute IC50, CEM
Excerpt: as §1, §6

[9] = system: human cervix carcinoma HeLa cells; test: Cell proliferation (Coulter count) assay, HeLa; format: cell-based; settings: 120 h, cell count on day 5, read-out: absolute IC50, HeLa
Excerpt: as §1, §6

[10] = system: CCRFCEM; test: CellTiterGlo viability assay, CCRFCEM; format: cell-based; settings: Homo sapiens, CCRF-CEM, 72 h, read-out: IC50 CCRFCEM
Procedure: (§7) In vitro viability assay were performed to assess the effects of compounds on cell viability in selected cell lines over ˜72 hrs using the CellTiterGlo (CTG, Promega-G7573) assay. The tests were performed in duplicates with treatment of compounds at 9 points, 3.16 folds titration in 96 well plates over ˜72 hrs. The compound starting concentrations were 198 μM. Cell viability assay using CellTiterGlo in 96-well plate were performed. Compound treatment 72 hrs, standard growth conditions, duplicates. Compounds were dissolved to 40 mM with thawed […]. Compounds were serially diluted at 3.16 fold in thawed DMSO, and warmed to 37° C. before being dissolved in media (2 μl+200 μl). After compounds were dissolved in media, media containing compounds were warmed to 37° C. in incubator and then compounds in media were added to cell plates (50 μl+50 μl) in duplicates. The compounds' final concentrations were from […] to 19.9 nM. All compound solubilities were checked and recorded again, then the plates were transferred to CO2 tissue culture incubator immediately and incubated for 3 days. DMSO final concentration is 0.5%.

[11] = system: HEL92.1.7; test: CellTiterGlo viability assay, HEL92.1.7; format: cell-based; settings: Homo sapiens, HEL 92.1.7, 72 h, read-out: IC50 HEL92.1.7
Procedure: as §7

[12] = system: KG-1; test: CellTiterGlo viability assay, KG-1; format: cell-based; settings: Homo sapiens, KG-1, 72 h, read-out: IC50 KG-1
Procedure: as §7

[13] = system: K562; test: CellTiterGlo viability assay, K562; format: cell-based; settings: Homo sapiens, K562, 72 h, read-out: IC50 K562
Procedure: as §7

[14] = system: NCI-H929; test: CellTiterGlo viability assay, NCI-H929; format: cell-based; settings: Homo sapiens, NCI-H929, 72 h, read-out: IC50 NCI-H929
Procedure: as §7

[15] = system: MV4-11; test: CellTiterGlo viability assay, MV4-11; format: cell-based; settings: Homo sapiens, MV4-11, 72 h, read-out: IC50 MV4-11
Procedure: as §7

[16] = system: RL; test: CellTiterGlo viability assay, RL; format: cell-based; settings: Homo sapiens, RL, 72 h, read-out: IC50 RL
Procedure: as §7

[17] = system: RPMI-8226; test: CellTiterGlo viability assay, RPMI-8226; format: cell-based, Human; settings: Homo sapiens, RPMI-8226, 72 h, read-out: IC50 RPMI-8226
Procedure: as §7

[18] = system: HL-60; test: CellTiterGlo viability assay, HL-60; format: cell-based; settings: Homo sapiens, HL-60, 72 h, read-out: IC50 HL-60
Procedure: as §7

| Structure (SMILES) | IC50 [7] [µM] | IC50 [8] [µM] | IC50 [9] [µM] | IC50 [10] [µM] | IC50 [11] [µM] | IC50 [12] [µM] | IC50 [13] [µM] | IC50 [14] [µM] | IC50 [15] [µM] | IC50 [16] [µM] | IC50 [17] [µM] | IC50 [18] [µM] | further results |
| --- | --- | --- | --- | --- | --- | --- | --- | --- | --- | --- | --- | --- | --- |
| C[C@H](NP(=O)(OC[C@H]1O[C@@H](n2c(Cl)nc3c(N)ncnc32)C(O)C1O)Oc1ccccc1)C(=O)OC1CCCCC1 (stereo partly drawn) [X, 5′-([(Cyclohexyloxy-L-alanin-N-yl)-phenyl]-phosphatyl) 8-chloroadenosine] | – | – | – | – | – | – | – | – | – | – | – | – | IC50 [1]: 0.1 to 5 µM; IC50 [2]: 0.1 to 5 µM; IC50 [3]: 0.1 to 5 µM; IC50 [4]: 15 to 100 µM |
| C[C@H](NP(=O)(OC[C@H]1O[C@@H](n2cnc3c(N)nc(Cl)nc32)[C@H](F)C1O)Oc1cccc2ccccc12)C(=O)OCc1ccccc1 (stereo partly drawn) [Comparative compound 1] | – | – | – | – | – | – | – | – | – | – | – | – | LD50 [5]: 140 nM; Change relative to control (%) [6]: −0.2%; KG-1a (CD34+/CD38−/CD123+) % compartment [6]: 3.3% |
| C[C@H](NP(=O)(OC[C@H]1O[C@@H](n2c(Cl)nc3c(N)ncnc32)[C@H](O)[C@@H]1O)Oc1cccc2ccccc12)C(=O)OCc1ccccc1 (single isomer, unassigned) [Isomer A of Compound D] | – | – | – | – | – | – | – | – | – | – | – | – | cytotoxic potency compared in words ([5]; KG1a, versus 8-chloroadenosine or other isomers (FIG. 1, FIG. 7)): significantly more potent; targeting of leukaemic/cancer stem cells in words ([6]; KG1a, compared to 8-chloroadenosine (FIG. 2, FIG. 8)): statistically significantly increased ability to target cancer stem cells |
| C[C@H](NP(=O)(OC[C@H]1O[C@@H](n2cnc3c(N)nc(Cl)nc32)CC1O)Oc1cccc2ccccc12)C(=O)OCc1ccccc1 (stereo partly drawn) [Comparative compound 2] | – | – | – | – | – | – | – | – | – | – | – | – | LD50 [5]: 820 nM; Change relative to control (%) [6]: −0.5%; KG-1a (CD34+/CD38−/CD123+) % compartment [6]: 3.5% |
| CCCCCOC(=O)[C@H](Cc1ccccc1)NP(=O)(OC[C@H]1O[C@@H](n2c(Cl)nc3c(N)ncnc32)C(O)C1O)Oc1cccc2ccccc12 (stereo partly drawn) [Q, 5′-([(Pent-1-yloxy-L-phenylalanin-N-yl)-naphth-1-yl]-phosphatyl) 8-chloroadenosine] | 5 to 15 | 0.1 to 5 | 0.1 to 5 | 5 to 15 | 0.1 to 5 | 5 to 15 | 0.1 to 5 | 5 to 15 | 0.1 to 5 | 5 to 15 | 0.1 to 5 | 5 to 15 | – |
| Nc1ncnc2c1nc(Cl)n2[C@@H]1O[C@H](COP(=O)(NCC(=O)OCc2ccccc2)Oc2cccc3ccccc23)C(O)C1O (stereo partly drawn) [Compound L, 5′-([(benzylo-yl-glycin-N-yl)-naphth-1-yl]-phosphatyl) 8-chloroadenosine] | 5 to 15 | 0.1 to 5 | 0.1 to 5 | 5 to 15 | 0.1 to 5 | 5 to 15 | 5 to 15 | 15 to 100 | 0.1 to 5 | 5 to 15 | 0.1 to 5 | 5 to 15 | – |
| CCCCCOC(=O)CNP(=O)(OC[C@H]1O[C@@H](n2c(Cl)nc3c(N)ncnc32)C(O)C1O)Oc1cccc2ccccc12 (stereo partly drawn) [O, 5′-([(Pent-1-yloxy-glycin-N-yl)-naphth-1-yl]-phosphatyl) 8-chloroadenosine] | 0.1 to 5 | 0.1 to 5 | 0.1 to 5 | 15 to 100 | 15 to 100 | 15 to 100 | 5 to 15 | 15 to 100 | 0.1 to 5 | 15 to 100 | 5 to 15 | 15 to 100 | – |
